Laboratory results reported in patent publication US11072617B2, “Bicyclic sulfones and sulfoxides and methods of use thereof” (Genentech, Inc., priority 2017, dated 2021).

Each compound was assayed against human RIP1 kinase domain (2-375) (Homo sapiens (Human), UniProt Q13546) (assay: RIP1 kinase inhibition biochemical assay (Transcreener ADP, fluorescence polarization)). Conditions: Ki app from tight-binding Morrison equation; 50 nM enzyme, 50 uM ATP, 2 hours incubation.
Summary of the method: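 Baculovirus-expressed human RIP1 kinase domain (2-375), 50 nM, incubated 2 h with compounds in pH 7.5 Hepes, 30 mM MgCl2, 50 uM ATP, 0.5% DMSO. ADP detected by Transcreener fluorescence-polarization tracer displacement; Ki^app from Morrison tight-binding fit.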

Chain of human RIP1 kinase domain (2-375) (Q13546 2-375): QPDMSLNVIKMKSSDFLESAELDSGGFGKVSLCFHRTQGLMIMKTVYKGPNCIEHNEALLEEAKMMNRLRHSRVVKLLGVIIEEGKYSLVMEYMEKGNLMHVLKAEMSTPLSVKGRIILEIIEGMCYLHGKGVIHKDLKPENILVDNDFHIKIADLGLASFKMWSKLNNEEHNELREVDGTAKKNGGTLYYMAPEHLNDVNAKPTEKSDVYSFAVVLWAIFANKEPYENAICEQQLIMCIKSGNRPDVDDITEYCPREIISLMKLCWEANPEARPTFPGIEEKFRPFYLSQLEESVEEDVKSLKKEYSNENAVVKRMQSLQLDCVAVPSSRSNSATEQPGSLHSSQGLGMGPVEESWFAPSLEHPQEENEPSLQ

SMILES	Ki [nM]
[O-][S+](CC(F)F)c1nc2n(n1)[C@H](c1ccccc1)C[C@@H]2F (stereo partly drawn) [Example 148, (5S,7S)-2-(2,2-difluoroethylsulfinyl)-7-fluoro-5-phenyl-6,7-dihydro-5H-pyrrolo[1,2-b][1,2,4]triazole]	7
CC(F)S(=O)(=O)c1nc2n(n1)[C@H](c1ccccc1)C[C@@H]2F (stereo partly drawn) [Example 158, (5S,7S)-7-fluoro-2-(1-fluoroethylsulfonyl)-5-phenyl-6,7-dihydro-5H-pyrrolo[1,2-b][1,2,4]triazole]	13
O=S(=O)(c1nc2n(n1)[C@H](c1ccccc1)C[C@@H]2F)C1CC12CC2 (stereo partly drawn) [Example 170, (5S,7S)-7-fluoro-5-phenyl-2-spiro[2.2]pentan-2-ylsulfonyl-6,7-dihydro-5H-pyrrolo[1,2-b][1,2,4]triazole]	< 5
O=S(=O)(c1nc2n(n1)[C@H](c1ccccc1)C[C@@H]2F)[C@H]1CCC1(F)F [Example 172, (5S,7S)-7-fluoro-5-phenyl-2-[(1S)-2,2-difluorocyclobutyl]sulfonyl-6,7-dihydro-5H-pyrrolo[1,2-b][1,2,4]triazole]	6
[O-][S+](CC(F)(F)F)c1nc2n(n1)C(c1ccccc1)CC2 (stereo not shown) [Example 177, 5-Phenyl-2-(2,2,2-trifluoroethylsulfinyl)-6,7-dihydro-5H-pyrrolo[1,2-b][1,2,4]triazole]	57
O=S(=O)(c1nc2n(n1)[C@H](c1cccc(Cl)c1)C[C@@H]2F)C1CC1 [Example 203, (5S,7S)-5-(3-chlorophenyl)-2-cyclopropylsulfonyl-7-fluoro-6,7-dihydro-5H-pyrrolo[1,2-b][1,2,4]triazole]	39
O=S(=O)(c1nc2n(n1)[C@H](c1cccc(Cl)c1F)C[C@@H]2F)[C@@H]1C[C@H]1F [Example 208, (5S,7S)-5-(3-chloro-2-fluoro-phenyl)-7-fluoro-2-[(1R,2R)-2-fluorocyclopropyl]sulfonyl-6,7-dihydro-5H-pyrrolo[1,2-b][1,2,4]triazole]	7
N#C[C@H]1C[C@@H](S(=O)(=O)c2nc3n(n2)[C@H](c2ccccc2)C[C@@H]3F)C1 [Example 210, Cis-3-[[(5S,7S)-7-fluoro-5-phenyl-6,7-dihydro-5H-pyrrolo[1,2-b][1,2,4]triazol-2-yl]sulfonyl]cyclobutanecarbonitrile]	55
N#C[C@H]1C[C@H](S(=O)(=O)c2nc3n(n2)[C@H](c2ccccc2)C[C@@H]3F)C1 [Example 211, trans-3-[[(5S,7S)-7-Fluoro-5-phenyl-6,7-dihydro-5H-pyrrolo[1,2-b][1,2,4]triazol-2-yl]sulfonyl]cyclobutanecarbonitrile]	12
N#C[C@@H]1C[C@H]1S(=O)(=O)c1nc2n(n1)[C@H](c1ccccc1)C[C@@H]2F [Example 212, (1S,2R)-2-[[(5S,7S)-7-fluoro-5-phenyl-6,7-dihydro-5H-pyrrolo[1,2-b][1,2,4]triazol-2-yl]sulfonyl]cyclopropanecarbonitrile]	11
O=S(=O)(c1nc2n(n1)[C@H](c1ccccc1)C[C@@H]2F)[C@H]1C[C@H](OC(F)F)C1 [Example 213, (5S,7S)-2-trans-[3-(difluoromethoxy)cyclobutyl]sulfonyl-7-fluoro-5-phenyl-6,7-dihydro-5H-pyrrolo[1,2-b][1,2,4]triazole]	6
O=S(=O)(c1nc2n(n1)[C@H](c1cccc(Cl)c1F)C[C@@H]2F)[C@H]1C[C@@H]1F [Example 219, (5S,7S)-5-(3-chloro-2-fluoro-phenyl)-7-fluoro-2-[(1S,2S)-2-fluorocyclopropyl]sulfonyl-6,7-dihydro-5H-pyrrolo[1,2-b][1,2,4]triazole]	25

Further lines, results first:

Ki [nM]	SMILES
140	[O-][S+](Cc1ccccn1)c1nc2n(n1)[C@H](c1ccccc1)C[C@@H]2F (stereo partly drawn) [Example 147, (5S,7S)-7-fluoro-5-phenyl-2-((pyridin-2-ylmethyl)sulfinyl)-6,7-dihydro-5H-pyrrolo[1,2-b][1,2,4]triazole]
43	O=S(=O)(c1nc2n(n1)[C@H](c1ccccc1)C[C@@H]2F)C1CCOC1 (stereo partly drawn) [Example 166, (5S,7S)-7-fluoro-5-phenyl-2-tetrahydrofuran-3-ylsulfonyl-6,7-dihydro-5H-pyrrolo[1,2-b][1,2,4]triazole]
12	CC1(S(=O)(=O)c2nc3n(n2)[C@H](c2ccccc2)C[C@@H]3F)CC1(F)F (stereo partly drawn) [Example 167, (5S,7S)-2-((2,2-difluoro-1-methylcyclopropyl)sulfonyl)-7-fluoro-5-phenyl-6,7-dihydro-5H-pyrrolo[1,2-b][1,2,4]triazole]
< 5	O=S(=O)(c1nc2n(n1)[C@H](c1ccccc1)C[C@@H]2F)[C@@H]1CCC1(F)F [Example 171, (5S,7S)-7-fluoro-5-phenyl-2-[(1R)-2,2-difluorocyclobutyl]sulfonyl-6,7-dihydro-5H-pyrrolo[1,2-b][1,2,4]triazole]
110	[O-][S+](c1nc2n(n1)C(c1cc(F)cc(F)c1)CC2)C(F)F (stereo not shown) [Example 176, 2-(Difluoromethylsulfinyl)-5-(3,5-difluorophenyl)-6,7-dihydro-5H-pyrrolo[1,2-b][1,2,4]triazole]
16	O=S(=O)(c1nc2n(n1)[C@H](c1cccc(F)c1F)C[C@@H]2F)[C@H]1C[C@H](F)C1 [Example 204, (5S,7S)-5-(2,3-difluorophenyl)-7-fluoro-2-trans-(3-fluorocyclobutyl)sulfonyl-6,7-dihydro-5H-pyrrolo[1,2-b][1,2,4]triazole]
< 5	N#C[C@H]1C[C@@H]1S(=O)(=O)c1nc2n(n1)[C@H](c1ccccc1)C[C@@H]2F [Example 209, (1R,2S)-2-[[(5S,7S)-7-fluoro-5-phenyl-6,7-dihydro-5H-pyrrolo[1,2-b][1,2,4]triazol-2-yl]sulfonyl]cyclopropanecarbonitrile]
